Experimental findings from patent US11384078B2, “5,6-fused-bicyclic compounds and compositions for the treatment of parasitic diseases” (NOVARTIS AG, priority 2017, dated 2022) are described below.

Common to all, as to type: cell-based
The subject of assay [1] is Trypanosoma cruzi amastigotes cultured in 3T3 fibroblast cells. Briefly: Assay for growth inhibition of kinetoplastid parasite Trypanosoma cruzi (beta-galactosidase Tulahuen strain, CPRG readout). The following applies: Trypanosoma cruzi, Fibroblast, T. cruzi amastigotes in 3T3 fibroblast cells; read-out: Buckner infectious T. cruzi EC50. The essentials:
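3T3 fibroblasts (1,000 cells/well) plated overnight, treated with compound in DMSO, then infected with 10,000 Lac-Z-expressing Tulahuen trypomastigotes. After 6 days, 0.6 mM CPRG with 0.6% NP-40 added for 2 h at room temperature; absorbance gives relative intracellular amastigote numbers. Benznidazole and nifurtimox serve as positive controls.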

The subject of assay [2] is L. donovani HU3 strain in mouse peritoneal macrophages. Kind of assay: Assay for inhibition of parasitemia of Leishmania donovani in mouse macrophages (SYBR Green nuclei count, high-content imaging). To be noted: Leishmania donovani, Peritoneal macrophage, L. donovani in mouse peritoneal macrophages; read-out: L. donovani in Mouse Macrophages EC50. The source says:
Assay for Inhibition of Parasitemia of Leishmania donovani in Mouse Macrophages
The assay measures the increase in the parasite number in the assayed plate well using a DNA intercalating dye, SYBR Green I® dye (INVITROGEN) to stain Leishmania cell nuclei. L. donovani HU3 strain is propagated by infecting BALB/c mice through tail vein injection with 10^7 Leishmania parasites. Infected mice are allowed to develop infection during 9-11 weeks post-infection. During this time, the parasites accumulate in the infected mouse spleens to large numbers, and the infected mice serve as the source of parasites for the in vitro measurement of compound efficacies. To assay a compound for anti-leishmanial activity, peritoneal macrophages isolated from non-infected BALB/c mice are seeded into 384-well plates at density 2×10^4 macrophages per well in […] of medium (RPM11640, 10% fetal serum albumin, 10 mM HEPES, 1 mM sodium pyruvate, 1% Pen/Strep). Subsequently, the seeded plates are placed into an incubator set to maintain 37° C. temperature and atmosphere with 5% CO2.
The next day, Leishmania parasites are isolated from the spleens of mice infected for 9-11 weeks and 4×10^5 isolated parasites in […] of the above media are added to each plate well. Plates are then returned into incubators and infection is allowed to proceed for 24 hours. After the infection of macrophages is completed, […] of compounds of the invention in the above medium, which also contains 5% DMSO, are added to plate wells containing infected macrophages. At the same time control compounds (miltefosine and amphotericin B) and DMSO are added to plates to serve as the positive and negative controls, respectively. After the compound addition, the plates are returned into incubator and cells infected with parasites are cultured for 5 days. At the end of cultivation, […] of 8% paraformaldehyde is added to plate wells and incubated for 15 min at room temperature. Following the incubation, the paraformaldehyde from plate wells is aspirated, and […] of PBS containing 0.2% Triton X-100 is added to wells. After 15 min incubation, the solution is aspirated from wells again, and replaced with Sybr® Green Dye solution in PBS (1:125,000 dilution). Infected cells are imaged with Evotec Opera high-content microscope, and the number of parasites in well is determined by counting parasite nuclei visualized by staining with Sybr® Green dye.

The subject of assay [3] is Leishmania donovani axenic amastigote. Kind of assay: In vitro assay for growth inhibition of Leishmania donovani axenic amastigote (Cell TiterGlo luminescence). The following applies: Leishmania donovani, L. donovani axenic amastigotes in vitro; read-out: L. donovani amastigotes EC50. The procedure, abridged:
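Compound-treated wells received 9600 axenic amastigotes in RPMI 1640-based medium at pH 5.5 (37 °C, 5% CO2). Growth measured as ATP luminescence (CellTiter-Glo) after 2-day incubation; DMSO and reference compounds served as controls.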
On the technique in general: Cellular ATP, detected with luciferase, serves as a proxy for viable cell number.

In assay [4] the test system is Trypanosoma brucei brucei (Lister 427) strain. Kind of assay: Assay for growth inhibition against Trypanosoma brucei brucei (Cell TiterGlo ATP luminescence). The following applies: Trypanosoma brucei, T. brucei brucei (Lister 427); read-out: T. Brucei (HAT) EC50. The procedure, abridged: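 Growth read-out is cellular ATP by CellTiter-Glo luminescence, measured 30 min after reagent addition, following 2-day incubation at 37 °C in CO2. Parasites (10,000/mL, HMI-9 plus 10% FBS and 10% serum plus) faced 10 threefold dilutions in duplicate; IC50 taken as 50% growth inhibition versus untreated.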

For orientation: EC50 means the concentration needed to bring the measured effect to its halfway point. As for `[2H]C([2H])([2H])N(c1cnc2nn(-c3cc(NC(=O)N4CC(F)C4)ccc3F)cc2c1)C([2H])([2H])[2H]` [Compound 314, N-(3-[5-[bis(^2H3)methylamino]-2H-pyrazolo[3,4-b]pyridin-2-yl]-4-fluorophenyl)-3-fluoroazetidine-1-carboxamide], the EC50 in assay [1] came to 5 nM; in assay [2], 6 nM; in assay [3] it was 242 nM.
In the case of `O=C(Nc1ccc(F)c(-n2cc3cc(C4CC4)cnc3n2)c1)c1ccco1` [Compound 55, N-(3-{5-cyclopropyl-2H-pyrazolo[3,4-b]pyridin-2-yl}-4-fluorophenyl)furan-2-carboxamide], the figures for the EC50 in assay [1], in assay [2] and in assay [3] were 6.3 nM, 35 nM and 57 nM, respectively.
On to `CCC(C)c1cnc2nn(-c3cc(NC(=O)N4CC(F)(F)C4)ccc3F)cc2c1` (stereo not shown) [Compound 36, N-{3-[5-(butan-2-yl)-2H-pyrazolo[3,4-b]pyridin-2-yl]-4-fluorophenyl}-3,3-difluoroazetidine-1-carboxamide], for which the EC50 in assay [2] worked out at 250 nM; in assay [3] it was 210 nM.
Take `O=C(Nc1ccc(F)c(-n2cc3cc(CC(F)(F)F)cnc3n2)c1)c1ccco1` [Compound 176, N-{4-fluoro-3-[5-(2,2,2-trifluoroethyl)-2H-pyrazolo[3,4-b]pyridin-2-yl]phenyl}furan-2-carboxamide]: the values for the EC50 in assay [1], in assay [2] and in assay [3] were 9.5 nM, 69 nM and 71 nM, respectively.
In the case of `CC(C)CCc1cnc2nn(-c3cc(NC(=O)c4ccco4)ccc3F)cc2c1` [Compound 63, N-{4-fluoro-3-[5-(3-methylbutyl)-2H-pyrazolo[3,4-b]pyridin-2-yl]phenyl}furan-2-carboxamide], the EC50 in assay [1] was found to be 14 nM; in assay [2] it was 90 nM; in assay [3], 89 nM.
With `O=C(Nc1ccc(F)c(-n2cc3cc(C4CCCC4)cnc3n2)c1)c1ccco1` [Compound 56, N-(3-{5-cyclopentyl-2H-pyrazolo[3,4-b]pyridin-2-yl}-4-fluorophenyl)furan-2-carboxamide], the EC50 in assay [2] was determined as 550 nM; in assay [3] it was 240 nM.
For the molecule `O=C(Nc1ccc(F)c(-n2cc3cc(C4CCC4)cnc3n2)c1)N1CC(F)(F)C1` [Compound 31, N-(3-{5-cyclobutyl-2H-pyrazolo[3,4-b]pyridin-2-yl}-4-fluorophenyl)-3,3-difluoroazetidine-1-carboxamide], the EC50 in assay [1] is 8.3 nM; in assay [3], 6.2 nM; in assay [4], under 23 nM.
In the case of `O=C(Nc1ccc(F)c(-n2cc3cc(C(F)(F)F)cnc3n2)c1)N1CC[C@@H](F)C1` [Compound 322, (3R)-3-fluoro-N-{4-fluoro-3-[5-(trifluoromethyl)-2H-pyrazolo[3,4-b]pyridin-2-yl]phenyl}pyrrolidine-1-carboxamide], the figures for the EC50 in assay [1], in assay [3] and in assay [4] were 3 nM, 12 nM and 5 nM, respectively.
For `C[C@H]1CN(c2cnc3nn(-c4cc(NC(=O)N5CC(F)C5)ccc4F)cc3c2)C[C@H](C)O1` [Compound 177, N-(3-{5-[(2S,6S)-2,6-dimethylmorpholin-4-yl]-2H-pyrazolo[3,4-b]pyridin-2-yl]-4-fluorophenyl)-3-fluoroazetidine-1-carboxamide], the EC50 in assay [1] is 55 nM; in assay [3], 27 nM; in assay [4], under 23 nM.
For `CC(C)c1cnc2nn(-c3cc(NC(=O)N(C)CC(F)(F)F)ccc3F)cc2c1` [Compound 227, 1-{4-fluoro-3-[5-(propan-2-yl)-2H-pyrazolo[3,4-b]pyridin-2-yl]phenyl}-3-methyl-3-(2,2,2-trifluoroethyl)urea] the same measures were 11 nM, 30 nM and 59 nM.
In the same order, the values of `CC(C)c1cnc2nn(-c3cc(NC(=O)C4CC(F)(F)C4)ccc3F)cc2c1` [Compound 118, 3,3-difluoro-N-{4-fluoro-3-[5-(propan-2-yl)-2H-pyrazolo[3,4-b]pyridin-2-yl]phenyl}cyclobutane-1-carboxamide] are 1100 nM, 690 nM and 1400 nM.
For `O=C(Nc1ccc(F)c(-n2cc3cc(N4CCS(=O)(=O)CC4)cnc3n2)c1)N1CC(F)C1` [Compound 178, N-{3-[5-(1,1-dioxo-1$|^6,4-thiomorpholin-4-yl)-2H-pyrazolo[3,4-b]pyridin-2-yl]-4-fluorophenyl}-3-fluoroazetidine-1-carboxamide] the same measures were 1600 nM, 160 nM and 36 nM.
On to `O=C(Nc1ccc(F)c(-n2cc3cc(C(F)(F)F)cnc3n2)c1)N1CCC1` [Compound 320, N-{4-fluoro-3-[5-(trifluoromethyl)-2H-pyrazolo[3,4-b]pyridin-2-yl]phenyl}azetidine-1-carboxamide], for which the EC50 worked out at 2 nM in assay [1], 8 nM in assay [3] and 5 nM in assay [4].
Take `O=C(Nc1ccc(F)c(-n2cc3cc(N4CCC5(COC5)C4)cnc3n2)c1)N1CC(F)C1` [Compound 183, 3-fluoro-N-[4-fluoro-3-(5-{2-oxa-6-azaspiro[3.4]octan-6-yl}-2H-pyrazolo[3,4-b]pyridin-2-yl)phenyl}azetidine-1-carboxamide]: the EC50 in assay [1] was 55 nM; in assay [3], 12 nM; in assay [4] it was under 23 nM.
In the case of `COC(=O)C12CC(C(=O)Nc3ccc(F)c(-n4cc5cc(C(C)C)cnc5n4)c3)(C1)C2` [Compound 120, methyl 3-({4-fluoro-3-[5-(propan-2-yl)-2H-pyrazolo[3,4-b]pyridin-2-yl]phenyl}carbamoyl)bicyclo[1.1.1]pentane-1-carboxylate], the figures for the EC50 in assay [1], in assay [3] and in assay [4] were 4300 nM, 5200 nM and 1800 nM, respectively.
Regarding `Cc1ccoc1C(=O)Nc1ccc(F)c(-n2cc3cc(C(C)C)cnc3n2)c1` [Compound 115, N-{4-fluoro-3-[5-(propan-2-yl)-2H-pyrazolo[3,4-b]pyridin-2-yl]phenyl}-3-methylfuran-2-carboxamide], the EC50 in assay [1] is 14 nM; in assay [3], 150 nM; in assay [4], under 23 nM.
On to `CN1CCN(c2cnc3nn(-c4cc(NC(=O)N5CC(F)C5)ccc4F)cc3c2)CC1` [Compound 179, 3-fluoro-N-{4-fluoro-3-[5-(4-methylpiperazin-1-yl)-2H-pyrazolo[3,4-b]pyridin-2-yl]phenyl}azetidine-1-carboxamide], for which the values for the EC50 in assay [1], in assay [3] and in assay [4] were 43 nM, 410 nM and under 23 nM, respectively.
For the molecule `Cc1cccnc1-c1cnc2nn(-c3cc(NC(=O)N4CC(F)(F)C4)ccc3F)cc2c1` [Compound 5, 3,3-difluoro-N-(4-fluoro-3-(5-(3-methylpyridin-2-yl)-2H-pyrazolo[3,4-b]pyridin-2-yl)phenyl)azetidine-1-carboxamide], the values for the EC50 in assay [1], in assay [3] and in assay [4] were 5.3 nM, 3.6 nM and under 23 nM, respectively.
As for `O=C(Nc1ccc(F)c(-n2cc3cc(-c4ccncc4)cnc3n2)c1)N1CC(F)C1` [Compound 182, 3-fluoro-N-(4-fluoro-3-(5-(pyridin-4-yl)-2H-pyrazolo[3,4-b]pyridin-2-yl)phenyl)azetidine-1-carboxamide], the EC50 was 6.7 nM in assay [1], 7.6 nM in assay [3] and under 23 nM in assay [4].
With `O=C(Nc1ccc(F)c(-n2cc3cc(-c4ccccn4)cnc3n2)c1)c1ccc(F)o1` [Compound 11, 5-fluoro-N-(4-fluoro-3-(5-(pyridin-2-yl)-2H-pyrazolo[3,4-b]pyridin-2-yl)phenyl)furan-2-carboxamide], the EC50 in assay [1] was 1 nM; in assay [3], 2.8 nM; in assay [4] it was over 50000 nM.
